The values below come from US12213955B2 (priority 2017, dated 2025).

In data set [1] the test system is MERS-CoV. The class given is cell-based.
Data set [2] deals with MERS-CoV. The class given is cell-based, MERS-CoV (HCoV-EMC/2012).
The next data set concerns the target T1, n-SREBP1 (Homo sapiens, UniProt P36956).
T1 construct: requires cleavage of pre-SREBPs to release the nuclear form (n-SREBPs); endogenous in cells; host or cells: Huh7 nuclear extract
T1 sequence (P36956 1-490 limits assumed): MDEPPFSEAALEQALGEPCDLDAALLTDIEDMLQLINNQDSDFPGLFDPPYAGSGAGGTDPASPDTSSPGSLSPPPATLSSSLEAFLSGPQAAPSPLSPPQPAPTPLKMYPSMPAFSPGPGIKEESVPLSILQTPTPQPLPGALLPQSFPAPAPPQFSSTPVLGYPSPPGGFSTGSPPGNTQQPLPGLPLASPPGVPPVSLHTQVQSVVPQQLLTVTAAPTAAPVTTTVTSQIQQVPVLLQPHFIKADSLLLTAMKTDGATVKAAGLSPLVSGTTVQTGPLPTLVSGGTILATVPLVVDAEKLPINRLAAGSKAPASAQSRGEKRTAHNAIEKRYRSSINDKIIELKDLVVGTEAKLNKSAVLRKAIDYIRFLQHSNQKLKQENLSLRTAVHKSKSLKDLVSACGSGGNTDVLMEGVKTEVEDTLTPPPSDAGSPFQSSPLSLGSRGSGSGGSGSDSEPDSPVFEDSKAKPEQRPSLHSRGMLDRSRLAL
Nature of the data set: SREBP1 DNA (SRE) binding activity assay. The class given is biochemical.

The subject of data set [3] is MERS-CoV. It is filed as cell-based. The source holds these as a separate data set.
Another data set deals with HMGCS promoter. It is filed as cell-based, hamster.
Data set [4] deals with MERS-CoV. The class given is cell-based, MERS-CoV (HCoV-EMC/2012). This is another data set of the same source.
In a further data set the test system is TNF-α, IL-1β, IL-8. It is filed as cell-based, human.
The conditions of data set [5]: mouse models, reported [43]; cited from earlier work.
In another data set the test system is Influenza A(H7N9) virus. Conditions: mouse, in vivo.
In a further data set the test system is Calu-3 cells. It is filed as cell-based, human.
The subject of data set [6] is MERS-CoV. It is filed as cell-based. The source holds these as a separate data set.
For data set [7], the system named is MERS-CoV. The class given is cell-based. The source holds these as a separate data set.
Data set [8] relates to human adenovirus type 5 (AdV5). It is filed as cell-based.
The subject of a further data set is Zika virus (ZIKV). It is filed as cell-based, ZIKV (Puerto Rico strain PRVABC59).
Data set [9] relates to MERS-CoV. The class given is cell-based. The source holds these as a separate data set.
The subject of data set [10] is MERS-CoV nucleoprotein (NP). The class given is cell-based.
Data set [11] has as its system MERS-CoV. The class given is cell-based. The source holds these as a separate data set.
The test system of data set [12] is MERS-CoV. It is filed as cell-based. The source holds these as a separate data set.
Data set [13] deals with MERS-CoV. The class given is cell-based, MERS-CoV (HCoV-EMC/2012). The source holds these as a separate data set.
In another data set the target is T2, n-SREBP2 (Homo sapiens, UniProt Q12772).
T2 construct: requires cleavage of pre-SREBPs to release the nuclear form (n-SREBPs); endogenous in cells; Huh7 in the sister assay
T2 sequence (Q12772 1-484 limits assumed): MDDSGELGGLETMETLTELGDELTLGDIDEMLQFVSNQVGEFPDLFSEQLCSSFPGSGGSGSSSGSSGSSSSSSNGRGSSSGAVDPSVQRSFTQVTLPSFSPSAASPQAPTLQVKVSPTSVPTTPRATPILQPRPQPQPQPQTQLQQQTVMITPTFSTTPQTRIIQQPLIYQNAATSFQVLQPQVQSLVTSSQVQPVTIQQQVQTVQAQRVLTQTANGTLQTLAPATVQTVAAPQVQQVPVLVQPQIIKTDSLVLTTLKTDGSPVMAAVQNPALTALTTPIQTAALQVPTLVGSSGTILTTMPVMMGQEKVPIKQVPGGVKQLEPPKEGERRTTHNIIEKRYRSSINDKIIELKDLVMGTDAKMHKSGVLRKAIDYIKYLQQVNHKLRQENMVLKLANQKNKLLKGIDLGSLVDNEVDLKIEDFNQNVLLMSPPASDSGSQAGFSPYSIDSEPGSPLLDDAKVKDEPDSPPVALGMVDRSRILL
Nature of the data set: SREBP2 DNA (SRE) binding activity assay. The class given is biochemical. As to conditions: dose-dependent.

Data set [14] concerns MERS-CoV. The class given is cell-based. The source holds these as a separate data set.
Data set [15] relates to MERS-CoV. As to the kind of experiment: microbe, parasite or virus in culture. The class given is cell-based.
Data set [16] concerns TK, CMV and SV40 promoters. The class given is cell-based.
The subject of data set [17] is MERS-CoV. It is filed as cell-based. The source holds these as a separate data set.
Another data set deals with SARS-CoV. The class given is cell-based, SARS-CoV (GZ50).
In a further data set the test system is enterovirus-A71 (EV-A71). The class given is cell-based, Enterovirus A71 (SZ/HK08-5).
The next data set relates to FAS-promoter. The class given is cell-based.
Data set [18] relates to double-membrane vesicles (DMVs). It is filed as cell-based, African green monkey.
Data set [19] relates to fatty acid and cholesterol synthesis genes. The class given is cell-based, human.
For data set [20], the system named is MERS-CoV. As to conditions: mouse, in vivo.
In data set [21] the test system is MERS-CoV. The class given is cell-based. The source holds these as a separate data set.
Another data set relates to Huh7 cells. The class given is cell-based, human.
For data set [22], the system named is MERS-CoV. The class given is cell-based. The source holds these as a separate data set.
Where [23] appears, read: Middle East respiratory syndrome-related coronavirus, read-out: IC50 anti-MERS-CoV activity.

Read-outs that look alike come from different tables or passages of the source. Some results are limits rather than exact numbers.

For the compound `CCCCCCCCCCCCCCC(Br)C(=O)O` (stereo not shown) [2-BP], the MERS-CoV replication entry in the data set on MERS-CoV [1] was “inhibited MERS-CoV replication in a dose-dependent manner”. For the same compound, in the data set on hemagglutinin (HA), the palmitoylated-HA level entry is “Reduced levels of palmitoylated-HA” and the “total HA protein” value is “no impact on protein synthesis”.

In the case of `C=C1CC[C@H](O)C/C1=C/C=C1\CCC[C@]2(C)[C@@H]([C@H](C)CCCC(C)(C)O)CC[C@@H]12` [25-Hydroxyvitamin D3], in the data set with MERS-CoV [2], the “cell protection against MERS-CoV infection” value is reported as “protected Huh7 cells against MERS-CoV infection”.

One may read the CC50 as the concentration at which the toxic effect on the cells reaches its halfway point. Read a high CC50 as better tolerance by the cells. The term IC50 denotes the concentration at which inhibition is half-maximal. `CC1(C)CCC(C)(C)c2cc(C(=O)Nc3ccc(C(=O)O)cc3)ccc21` [AM580]: the “binding of n-SREBP1 with its SRE” value at n-SREBP1 (Huh7 nuclear extraction, 20 μM) is recorded as “inhibited binding”. Further, the “binding partner: n-SREBP1 or SRE (pre-incubation)” value at n-SREBP1 (pre-incubation 2 h) is “bind with n-SREBP1 rather than SRE”. The “loss of antiviral potency with increased n-SREBPs” value with MERS-CoV [3] is “about 1 log10 unit”. In addition, in the data set with HMGCS promoter, the “HMGCS-promoter-Luc reporter gene activity” value is given as “concentration-dependent inhibition”. In addition, in the data set with MERS-CoV [4], the “selectivity index (CC50/IC50)” value came to 507. The “virus-induced pro-inflammatory cytokine activation” value in the data set with TNF-α, IL-1β, IL-8 is “suppress virus-induced pro-inflammatory cytokine activation”. Moreover, the teratogenicity result in [5] was “teratogenic effects”. For the same compound, in the data set with Influenza A(H7N9) virus, the lung histopathology entry was “ameliorated virus-associated pulmonary inflammatory infiltration and bronchopneumonia”; the mean body weight entry was “gradually rebounded starting on day 8 post-challenge”; the “mean viral RNA load in lung tissues vs DMSO-treated control” value is “significantly (p<0.01) lower”; the survival rate is reported as 60%. Further, the “virus-induced perturbation of lipid homeostasis (lipidome)” value in the data set with Calu-3 cells is “antagonized this virus-induced perturbation of lipid homeostasis”. For the same compound, in the data set on MERS-CoV [2], the “cell protection against MERS-CoV infection” value is “protected cells against infection”. Also, in the data set with MERS-CoV [6], the “PFU in intestinoid culture supernatant” value is given as “no PFU were detectable”, the “expression of viral NP in intestinoids” value is given as “markedly decreased expression of viral NP” and the “reduction of viral titer relative to DMSO-treated control intestinoids” value is listed as “approximately 6 log10 PFU/ml”. Further, in the data set on hemagglutinin (HA), the palmitoylated-HA level result is reported as “Reduced levels of palmitoylated-HA” and the “total HA protein” value is listed as “no impact on protein synthesis”. For the same compound, the “MERS-CoV NP-positive cells” value in the data set on MERS-CoV [7] turned out to be 5.38%. Moreover, the “concentrations inhibiting replication of AdV5” value in [8] was “nanomolar to low micromolar”. Also, the “concentrations inhibiting replication of ZIKV” value with Zika virus (ZIKV) is “nanomolar to low micromolar”. Besides, the “MERS-CoV replication in multiple cell types” value in the data set on MERS-CoV [9] is given as “reduce MERS-CoV replication in multiple cell types”. Besides, the “expression of MERS-CoV nucleoprotein (NP)” value in data set [10] is listed as “dramatically decreased”. The “antiviral potency of AM580 with RAR-α antagonist ER50891” value in the data set on MERS-CoV [11] is on record as “did not diminish the antiviral potency”. Moreover, the “MERS-CoV attachment or internalization” value in the data set with MERS-CoV [12] is “did not interfere with MERS-CoV attachment or internalization”. The CC50 in the data set with different cell lines fell in the range of 100000 to 200000 nM. Besides, in the data set on MERS-CoV [13], the “reduction of viral titer in the cell supernatant” value was more than 3 logs. Also, the “binding of n-SREBP2 with its SRE” value on n-SREBP2 is on record as “inhibited binding”. The “immunofluorescence staining for MERS-CoV NP” value with MERS-CoV [14] is listed as “near-complete suppression of virus infection”. Moreover, the IC50 in the data set with MERS-CoV [15] (read-out: IC50 against MERS-CoV infection) is less than 1000 nM. Further, the “transactivation of TK, CMV and SV40 promoters” value in [16] is “did not inhibit transactivation of promoters”. Besides, the “MERS-CoV NP expression in epithelial cells of terminal bronchioles” value with MERS-CoV [17] was “marked reduction in MERS-CoV NP expression”. Besides, in the data set on SARS-CoV, the “concentrations inhibiting replication of SARS-CoV” value is recorded as “nanomolar to low micromolar” and the “selectivity index (CC50/IC50)” value is on record as 114. In addition, the “concentrations inhibiting replication of EV-A71” value with enterovirus-A71 (EV-A71) is reported as “nanomolar to low micromolar”. In addition, in the data set on FAS-promoter, the “FAS-promoter-Luc reporter gene activity” value is “concentration-dependent inhibition”. Besides, in [18], the DMV formation entry was “no DMVs were noted”. In data set [19], the “cholesterol synthetic pathway genes with reduced mRNA expression (10/12)” value was 83.3% and the “fatty acid metabolism genes with significant decreases in mRNA expression (13/17)” value is reported as 76.5%. In addition, in the data set with MERS-CoV [20], the “alveolar damage and interstitial inflammatory infiltration in lung tissues” value is “significantly improved”; the “mean body weight vs DMSO-treated control mice” value is “generally higher”; the “reduction of viral RNA content of brain tissues vs DMSO-treated control” value was 4 log10; the “viral RNA content in lung tissues vs DMSO-treated control” value is reported as “significantly (p<0.01) lower”. Further, in the data set on MERS-CoV [20] (ip, 12.5 mg/kg/day), the survival came to 100%. In addition, in the data set on MERS-CoV [21], the “anti-MERS-CoV activity (viral yield)” value is “showed anti-MERS-CoV activity” and the “virus yield on addition of sodium palmitate” value is “increased the virus yield”. The “accumulation of lipid droplets and cholesterol” value with Huh7 cells is given as “significantly reduced their production”.

With `CC1(C)CCC(C)(C)c2cc(NC(=O)c3ccc(C(=O)O)cc3)ccc21` [Tamibarotene], the IC50 in the data set with MERS-CoV [15] (setting [23]) is 320 ± 26 nM.

On to `C=C(C)[C@@H]1CC[C@]2(CO)CC[C@]3(C)[C@H](CC[C@@H]4[C@@]5(C)CC[C@H](O)C(C)(C)[C@@H]5CC[C@]43C)[C@@H]12` [betulin], for which, in the data set with MERS-CoV [22], the “reduction in viral titer” value is given as “about 1 log PFU/ml”.

With `C=C(c1ccc(C(=O)O)cc1)c1cc2c(cc1C)C(C)(C)CCC2(C)C` [bexarotene], the IC50 in the data set on MERS-CoV [15] (setting [23]) came out at 875 ± 15 nM.

With PF429242, the “reduction in viral titer” value in the data set with MERS-CoV [22] is on record as “about 1 log PFU/ml”.
